The target in this assay is T1, CDK4/cyclin D1 kinase complex (Homo sapiens, UniProt P11802).
T1 construct: HA (Hemagglutinin tag) (C); made in house; host or cells: Sf9 insect cells (baculovirus co-infection)
The assay can be described thus: CDK4/cyclinD1 Flashplate assay in 96-well format. The note with it: read-out: IC 50 CDK4. It counts as biochemical. The procedure: Purification of the CDK4-HA/cyclin D1-(His)6 complex by IMAC (Immobilized Metal Affinity Chromatography):
Two recombinant baculoviruses carrying the human sequences coding respectively for CDK4-HA (C-terminal fusion with the Hemagglutinin tag) and for cyclin D1-(His)6 are used to co-infect Sf9 insect cells. Sixty hours after the beginning of co-infection, the cells are harvested by centrifugation and then frozen at −20° C. until their use. After thawing in buffer A (HEPES 200 mM pH 7.0, NaCl 50 mM, MgCl2 2 mM, imidazole 25 mM, TCEP 1 mM, glycerol 10% (w/v), NaF 1 mM, Na3VO4 1 mM), stirring at 4° C. for 1 h, and centrifugation, the complex present in the lysis supernatant is purified by affinity chromatography on nickel (IMAC) and stored at −80° C.
CDK4/cyclinD1 Flashplate Assay in 96-Well Format.
An assay in 96-well “Flashplate” (scintillation plate) plates coated with streptavidin is used to evaluate the inhibition of the CDK4/cyclin D1 kinase complex by the products of the invention. To perform this test, the biotinylated peptide substrate, a fragment of the pRb protein, (biotinyl-[…]-amide), is dissolved at a concentration of 2 mM in kinase buffer (HEPES/NaOH 50 mM, NaCl 1 mM, MgCl2 5 mM, pH=7.5) to form a stock solution, which is stored at −20° C. in the form of 110 μl aliquots. On the day of the experiment, an aliquot of this solution is thawed and diluted in kinase buffer containing 1 mM of dithiothreitol, added at the time of use, so as to give a final peptide concentration of 2.571 μM. seventy μl of this solution are deposited in each well of the Flashplate plate, to give a final substrate concentration of 1.8 μM during the enzymatic reaction, which is performed in a final volume of 100 μl (cf. below). Intermediate dilutions of inhibitors (products of the invention) at various concentrations are prepared in DMSO from 10 mM stock solutions in separate tubes. In this way dilutions at 1000 μM, 333.3 μM, 111.1 μM, 37.03 μM, 12.35 μM, 4.11 μM and 1.37 μM are produced. One μl of each of these solutions (or 1 μl of DMSO for the controls) is subsequently transferred into the wells of the assay plate. To each well there is subsequently added 19 μl of a solution of a mixture of adenosine triphosphate (ATP) and ATPγ^33P in the kinase buffer at a concentration of 5.26 μM of total ATP and 78.9 μCi/ml of ^33P. The enzymatic reaction is triggered by adding 10 μl per well of a solution of CDK4/cyclin D1 complex at 250 nM in the kinase buffer, containing 1 mM of dithiothreitol (or 10 μl of kinase buffer containing 1 mM of dithiothreitol for the reaction blanks). At the end of the various additions, the final volume in each well is 100 μl, the final substrate concentration is 1.8 μM, the final inhibitor concentrations are 10 μM, 3.33 μM, 1.11 μM, 0.37 μM, 0.123 μM, 0.041 μM and 0.014 μM (depending on the concentration of the intermediate dilution), the final ATP concentration is 1 μM, the final amount of ^33P is 1.5 μCi/well, and the final concentration of CDK4/cyclin D1 complex is 25 nM.
After all of the reagents have been added, the assay plate is incubated at 30° C. with orbital stirring at 650 rpm. Following incubation, the plate is washed three times with 300 μl per well of PBS buffer (phosphate buffered saline, pH=7.4 with neither calcium nor magnesium, reference 10010-015, Gibco BRL). The incorporation of ^33P into the substrate peptide is measured by scintillation counting using a Packard Topcount.NXT instrument. The inhibitory activity of the products of the invention is evaluated by determining the concentration of inhibitor resulting in a 50% reduction in the enzymatic activity (IC50).

The values that follow come from US7517902B2, “Substituted indazoles, compositions containing the same, and the preparation and use thereof” (Aventis Pharma S.A., priority 2004, dated 2009).

T1 sequence (P11802 whole entry): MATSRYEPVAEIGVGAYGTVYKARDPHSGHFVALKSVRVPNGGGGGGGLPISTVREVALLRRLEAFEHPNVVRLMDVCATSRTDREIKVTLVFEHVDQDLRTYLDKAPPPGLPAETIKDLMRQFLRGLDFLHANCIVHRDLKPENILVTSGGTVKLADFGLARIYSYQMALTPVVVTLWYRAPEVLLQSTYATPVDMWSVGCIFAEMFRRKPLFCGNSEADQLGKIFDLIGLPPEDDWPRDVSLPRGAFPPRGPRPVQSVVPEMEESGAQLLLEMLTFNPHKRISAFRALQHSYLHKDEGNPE
T1 sequence (P24385 whole entry partner): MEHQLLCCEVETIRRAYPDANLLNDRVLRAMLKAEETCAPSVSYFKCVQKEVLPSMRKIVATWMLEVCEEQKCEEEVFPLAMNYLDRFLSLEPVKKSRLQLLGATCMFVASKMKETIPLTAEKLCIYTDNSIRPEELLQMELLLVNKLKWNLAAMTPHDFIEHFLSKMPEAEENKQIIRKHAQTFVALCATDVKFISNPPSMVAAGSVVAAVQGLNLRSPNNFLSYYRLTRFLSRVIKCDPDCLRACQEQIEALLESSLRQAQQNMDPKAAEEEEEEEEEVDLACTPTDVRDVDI

Regarding `O=C(Nc1n[nH]c2c(F)c(-c3ccc(NS(=O)(=O)c4ccccc4Cl)cc3)ccc12)c1ccsc1` [Example 37, Thiophene-3-carboxylic acid{6-[4-(2-chloro-benzenesulfonyl-amino)phenyl]-7-fluoro-1H-indazol-3-yl}-amide], the IC50 turned out to be 51 nM.
To `CS(=O)(=O)Nc1ccc(-c2ccc3c(NC(=O)c4ccsc4)n[nH]c3c2F)cc1` [Example 34, Thiophene-3-carboxylic acid[7-fluoro-6-(4-methanesulfonyl-aminophenyl)-1H-indazol-3-yl]-amide] belongs 2090 nM; to `Cn1cnc(S(=O)(=O)Nc2ccc(-c3ccc4c(NC(=O)c5ccsc5)n[nH]c4c3F)cc2)c1` [Example 39, Thiophene-3-carboxylic acid{7-fluoro-6[4-(1-methyl-1H-imidazole-4-sulfonylamino)-phenyl]-1H-indazol-3-yl}-amide], 3650 nM; to `O=C(Nc1n[nH]c2c(F)c(-c3ccc(NS(=O)(=O)c4ccccc4)cc3)ccc12)c1ccsc1` [Example 32, Thiophene-3-carboxylic acid[6-(4-benzene-sulfonylamino-phenyl)-7-fluoro-1H-indazol-3-yl]-amide], 747 nM.
With `O=C(Nc1n[nH]c2c(F)c(-c3ccc(NS(=O)(=O)c4cccc5ccccc45)cc3)ccc12)c1ccsc1` [Example 30, Thiophene-3-carboxylic acid{7-fluoro-6-[4-(naphthalene-1-sulfonylamino)-phenyl]-1H-indazol-3-yl}-amide], the IC50 came to 490 nM.
For `O=C(Nc1n[nH]c2c(F)c(-c3ccc(NS(=O)(=O)c4cccs4)cc3)ccc12)c1ccsc1` [Example 31, Thiophene-3-carboxylic acid{7-fluoro-6-[4-(thiophene-2-sulfonylamino)-phenyl]-1H-indazol-3-yl}-amide] the value was 730 nM; for `O=C(Nc1n[nH]c2c(F)c(-c3ccc(NS(=O)(=O)c4cccc(Cl)c4)cc3)ccc12)c1ccsc1` [Example 38, Thiophene-3-carboxylic acid{6-[4-(3-chloro-benzenesulfonyl-amino)phenyl]-7-fluoro-1H-indazol-3-yl}-amide], 419 nM.
Consider `CC(=O)Nc1ccc(S(=O)(=O)Nc2ccc(-c3ccc4c(NC(=O)c5ccsc5)n[nH]c4c3F)cc2)cc1` [Example 33, Thiophene-3-carboxylic acid{6-[4-(4-acetyl-aminobenzene-sulfonylamino)-phenyl]-7-fluoro-1H-indazol-3-yl}-amide], for which the IC50 amounted to 1210 nM.
For `O=C(Nc1n[nH]c2c(F)c(-c3ccc(NS(=O)(=O)C4CC4)cc3)ccc12)c1ccsc1` [Example 36, Thiophene-3-carboxylic acid{6-[4-cyclo-propanesulfonyl-aminophenyl)-7-fluoro-1H-indazol-3-yl}-amide] the value was 3600 nM.
